Measurements from patent publication US5440016A, “Peptides of the formula (KFmoc) ZZZ and their uses” (priority 1993, dated 1995).
pIC50: −log10 of the molar value. Square brackets hold non-standard residues; d marks the D form. Ends that are not written are not given here. Peptide text beside a SMILES is read from it.

Assays:
[1] = target: T1, trypsin (from bovine pancreas) (Bos taurus, UniProt P00760); test: Trypsin inhibition assay; type: biochemical; details: trypsin concentration of 193 nM; substrate N-alpha-benzoyl-DL-arginine-p-nitroanilide; read-out: IC50, trypsin inhibiting activity
T1 construct: trypsin (from bovine pancreas, 8,600 units/mg solid); from tissue; host or cells: bovine pancreas
T1 sequence (P00760 24-246): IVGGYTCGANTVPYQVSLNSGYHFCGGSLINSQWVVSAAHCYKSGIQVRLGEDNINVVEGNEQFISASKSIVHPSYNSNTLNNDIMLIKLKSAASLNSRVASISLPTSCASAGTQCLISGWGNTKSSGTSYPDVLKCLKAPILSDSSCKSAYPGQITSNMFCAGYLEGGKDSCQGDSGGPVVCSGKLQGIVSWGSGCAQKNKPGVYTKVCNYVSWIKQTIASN
Description: The assay was performed in a 96-well assay plate, 15 μl trypsin (from bovine pancreas, 8,600 units/mg solid) solution (0.05 mg/ml 0.02 M HCl), 50 μl peptide solution (1 to 3 mM in water), and 100 μl 0.1 M Tris-buffer containing 25 mM CaCl2 (pH 7.8) were mixed in the wells of the assay plate. After incubation for 30 minutes, 100 μl substrate solution (N^α -benzoyl-DL-arginine-p-nitroanilide, 2.3 mM in water) was added. After 30 minutes, absorbances were read at 405 nm using a Titertek multichannel photometer, and expressed as a percentage of the control (well without peptide). The values obtained with serial dilutions of the peptide solutions were used to determine the IC50 values (concentration neccessary for 50% inhibition).

[2] = tested on: Human red blood cells (RBCs); test: Hemolytic activity; type: cell-based; details: at 100 μg/ml, Tables 22-23
[3] = tested on: Escherichia coli ATCC 25922; details: Tables 22-23
Description: (§1) Escherichia coli ATCC 25922 and P. aeruginosa ATCC 27853 were used as Gram-negative (-) and Staphylococcus aureus ATCC 29213 as Gram-positive (+) bacteria. Bacteria were grown overnight at 37° C. in Mueller-Hinton (MH) broth. This culture was reinoculated and incubated at 37° C. to reach the exponential phase of bacteria growth, i.e., a final bacterial suspension containing 10^5 to 5×10^5 colony-forming units (CFU)/ml. The concentration of cells was established by plating 100 μl of different dilutions of the culture solution (e.g., 10^-2, 10^-3 and 10^-4) onto solid agar plates.
(§2) Following an overnight incubation at 37° C., the CFU thus formed were counted on each agar plate. In 96-well tissue culture plates, as control blanks, eight wells per plate contained only medium, while as a positive growth control, eight other wells contained medium plus cells.
(§3) The plates were incubated overnight at 37° C., and the optical density (OD) determined at 620 nm after different times of incubation.

[4] = tested on: Staphylococcus aureus ATCC 29213; details: Tables 22-23
Description: as §1, §2, §3

[5] = tested on: Streptococcus sanguis ATCC 10556; details: Tables 22-23
Description: Streptococcus sanguis ATCC 10556 (Gram-positive (+) bacteria present in tooth crevices) was grown overnight at 37° C. in Brain Heart Infusion (BHI) broth. This culture was reinoculated and incubated at 37° C. to reach the exponential phase of bacteria growth, i.e., a final bacterial suspension containing 10^5 to 5×10^5 colony-forming units (CFU)/ml. The concentration of cells was established by plating 100 μl of different dilutions of the culture solution (e.g., 10^-2, 10^-4) and 10^-4) onto solid agar plates. Following an overnight incubation at 37° C., the CFU thus formed were counted on each agar plate. In 96-well tissue culture plates, as control blanks, eight wells per plate contained only medium, while as a positive growth control, eight other wells contained medium plus cells. […] The plates were incubated overnight at 37° C., and the optical density (OD) determined at 620 nm after 20 to 24 hours incubation.

[6] = tested on: Candida albicans ATCC 10231; details: Tables 22-23
P. aeruginosa ATCC 27853 = test: Antimicrobial assay, P. aeruginosa; details: Tables 22-23
Description: as §1, §2, §3

Molecule | pIC50 [1] | % hemolysis at 100 μg/ml [2] | IC50 (μg/ml) against E. coli [3] | IC50 (μg/ml) against S. aureus [4] | IC50 (μg/ml) against S. sanguis [5] | IC50 (μg/ml) against C. albicans [6] | IC50 (μg/ml) against P. aeruginosa (P. aeruginosa ATCC 27853)
CC(=O)N[C@H](CCCNC(=N)N)C(=O)N[C@H](Cc1ccc(O)cc1)C(=O)N[C@H](CCCNC(=N)N)C(=O)N1CCC[C@@H]1C(=O)N[C@H](Cc1c[nH]c2ccccc12)C(=O)N[C@@H](C(N)=O)[C@H](C)O [Ac-ryrpwt-NH2] (Ac-[dR][dY][dR][dP][dW][dT]-NH2) | 3.85 | – | – | – | – | – | –
CC(=O)N[C@H](CCCNC(=N)N)C(=O)N[C@H](Cc1ccc(O)cc1)C(=O)N[C@H](CCCNC(=N)N)C(=O)N1CCC[C@@H]1C(=O)N[C@H](Cc1c[nH]c2ccccc12)C(=O)N[C@@H](C(N)=O)C(C)C [Ac-ryrpwv-NH2] (Ac-[dR][dY][dR][dP][dW][dV]-NH2) | 3.88 | – | – | – | – | – | –
CC(=O)N[C@H](CCCNC(=N)N)C(=O)N[C@H](CCCNC(=N)N)C(=O)N[C@H](Cc1c[nH]c2ccccc12)C(=O)N[C@H](Cc1c[nH]c2ccccc12)C(=O)N[C@H](CS)C(=O)N[C@@H](C(N)=O)C(C)C [Ac-rrwwcv-NH2] (Ac-[dR][dR][dW][dW][dC][dV]-NH2) | – | 10.0% | 9 to 10 µg/mL | 16 to 19 µg/mL | 7 to 8 µg/mL | 107 to 119 µg/mL | 58 to 88 µg/mL
CC(=O)N[C@H](CCCNC(=N)N)C(=O)N[C@H](Cc1ccc(O)cc1)C(=O)N[C@H](CCCNC(=N)N)C(=O)N1CCC[C@@H]1C(=O)N[C@H](Cc1c[nH]c2ccccc12)C(=O)N[C@H](Cc1c[nH]c2ccccc12)C(N)=O [Ac-ryrpww-NH2] (Ac-[dR][dY][dR][dP][dW][dW]-NH2) | 3.90 | – | – | – | – | – | –
Cecropin A (KWKLFKKIEKVGQNIRDGIIKAGPAVAVVGQATQIAK; ends and bridges not checked; UniProt P01507 27-63, looked up) [reference compound] | – | 0.0% | 1 to 2 µg/mL | > 500 µg/mL | 337 to 400 µg/mL | 81 to 88 µg/mL | 5 to 6 µg/mL
Ac-RRWWCP-NH2 [Ac-RRWWCP-NH2] | – | 0.0% | 19 to 27 µg/mL | 49 to 50 µg/mL | 190 µg/mL | 217 to 222 µg/mL | 200 µg/mL
Ac-RRWWCV-NH2 [Ac-RRWWCV-NH2] | – | 0.0% | 17 to 18 µg/mL | 19 to 21 µg/mL | 41 to 46 µg/mL | 103 to 174 µg/mL | 33 to 44 µg/mL
Ac-RRWWCE-NH2 [Ac-RRWWCE-NH2] | – | 0.0% | > 125 µg/mL | > 125 µg/mL | > 500 µg/mL | 842 to 874 µg/mL | 149 µg/mL
Ac-RRWWCT-NH2 [Ac-RRWWCT-NH2] | – | 0.5% | 24 to 28 µg/mL | 38 to 47 µg/mL | 56 to 61 µg/mL | 216 to 223 µg/mL | 180 µg/mL
CC(=O)N[C@@H](CCCNC(=N)N)C(=O)N[C@@H](CCCNC(=N)N)C(=O)N[C@@H](Cc1c[nH]c2ccccc12)C(=O)N[C@@H](Cc1c[nH]c2ccccc12)C(=O)N[C@@H](CS)C(=O)N[C@@H](CS)C(N)=O [Ac-RRWWCC-NH2] (Ac-RRWWCC-NH2) | – | 9.5% | 54 to 68 µg/mL | 47 to 63 µg/mL | 92 to 94 µg/mL | 162 to 166 µg/mL | 86 to 88 µg/mL
Ac-RRWWCQ-NH2 [Ac-RRWWCQ-NH2] | – | 0.0% | 41 to 42 µg/mL | 52 to 98 µg/mL | 230 µg/mL | 223 to 230 µg/mL | 60 to 65 µg/mL
Ac-RRWWCI-NH2 [Ac-RRWWCI-NH2] | – | 8.3% | 29 to 33 µg/mL | 12 to 18 µg/mL | 17 to 18 µg/mL | 93 to 102 µg/mL | 40 to 70 µg/mL
Ac-RRWWCW-NH2 [Ac-RRWWCW-NH2] | – | 14% | 58 to 61 µg/mL | 41 to 43 µg/mL | 55 to 78 µg/mL | 151 to 166 µg/mL | 60 to 88 µg/mL
Ac-RRWWCN-NH2 [Ac-RRWWCN-NH2] | – | 0.1% | 40 to 55 µg/mL | 98 to 125 µg/mL | 230 µg/mL | 222 to 227 µg/mL | 120 µg/mL
Ac-RRWWCD-NH2 [Ac-RRWWCD-NH2] | – | 0.3% | > 125 µg/mL | > 125 µg/mL | > 500 µg/mL | > 1000 µg/mL | > 500 µg/mL
CC(=O)N[C@H](CCCNC(=N)N)C(=O)N[C@H](Cc1ccc(O)cc1)C(=O)N[C@H](CCCNC(=N)N)C(=O)N1CCC[C@@H]1C(=O)N[C@H](Cc1c[nH]c2ccccc12)C(=O)N[C@H](CS)C(N)=O [Ac-ryrpwc-NH2] (Ac-[dR][dY][dR][dP][dW][dC]-NH2) | 3.87 | – | – | – | – | – | –
CC(=O)N[C@H](CCCNC(=N)N)C(=O)N[C@H](Cc1ccc(O)cc1)C(=O)N[C@H](CCCNC(=N)N)C(=O)N1CCC[C@@H]1C(=O)N[C@H](Cc1c[nH]c2ccccc12)C(=O)N1CCC[C@@H]1C(N)=O [Ac-ryrpwp-NH2] (Ac-[dR][dY][dR][dP][dW][dP]-NH2) | 4.21 | – | – | – | – | – | –
Ac-RRWWCH-NH2 [Ac-RRWWCH-NH2] | – | 0.0% | 20 to 28 µg/mL | 26 to 28 µg/mL | 53 to 62 µg/mL | 69 to 107 µg/mL | 59 to 65 µg/mL
